Common to all, as to format: cell-based
In experiment [1] the target is T1, Integrin alpha-4/beta-1 (Homo sapiens, UniProt P05556+P13612). The experiment in a line: Inhibition of recombinant human VCAM binding to VLA-4 of Ramos cells at 10 uM.
For experiment [2], the target named is T1, Integrin alpha-4/beta-1. Briefly: Antagonistic activity against VLA-4 (derived from ramos cells) binding to recombinant human VCAM.
Experiment [3] has as its target T1, Integrin alpha-4/beta-1. Briefly: Inhibition of CS-1 peptide binding to VLA-4 expressed in Ramos cells.

Among the data in ChEMBL document CHEMBL1133329, “N-acyl phenylalanine analogues as potent small molecule VLA-4 antagonists” (Bioorg Med Chem Lett, 2000) are inhibition and IC50 values, retold here.

pIC50: −log10 of the molar value.

T1 sequence (P05556 whole entry): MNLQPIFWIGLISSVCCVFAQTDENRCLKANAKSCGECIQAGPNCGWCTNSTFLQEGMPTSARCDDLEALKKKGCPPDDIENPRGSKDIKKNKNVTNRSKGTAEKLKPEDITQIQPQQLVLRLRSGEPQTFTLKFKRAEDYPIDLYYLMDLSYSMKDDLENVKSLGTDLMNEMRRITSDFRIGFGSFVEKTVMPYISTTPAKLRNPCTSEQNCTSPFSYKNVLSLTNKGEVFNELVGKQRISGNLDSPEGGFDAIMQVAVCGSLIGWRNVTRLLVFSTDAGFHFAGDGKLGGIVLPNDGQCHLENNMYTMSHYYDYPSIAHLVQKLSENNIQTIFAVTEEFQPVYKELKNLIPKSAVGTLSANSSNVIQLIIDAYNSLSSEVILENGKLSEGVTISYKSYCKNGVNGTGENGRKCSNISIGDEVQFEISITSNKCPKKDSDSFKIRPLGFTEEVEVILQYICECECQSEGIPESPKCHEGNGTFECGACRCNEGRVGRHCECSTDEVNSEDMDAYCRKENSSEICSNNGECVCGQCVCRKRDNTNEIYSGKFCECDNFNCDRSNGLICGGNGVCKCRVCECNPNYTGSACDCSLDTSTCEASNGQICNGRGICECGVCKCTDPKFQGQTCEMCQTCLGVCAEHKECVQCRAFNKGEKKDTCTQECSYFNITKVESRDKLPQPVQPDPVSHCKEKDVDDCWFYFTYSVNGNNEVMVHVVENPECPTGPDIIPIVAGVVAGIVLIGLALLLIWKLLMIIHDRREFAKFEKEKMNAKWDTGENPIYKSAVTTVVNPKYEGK
T1 sequence (P13612 whole entry): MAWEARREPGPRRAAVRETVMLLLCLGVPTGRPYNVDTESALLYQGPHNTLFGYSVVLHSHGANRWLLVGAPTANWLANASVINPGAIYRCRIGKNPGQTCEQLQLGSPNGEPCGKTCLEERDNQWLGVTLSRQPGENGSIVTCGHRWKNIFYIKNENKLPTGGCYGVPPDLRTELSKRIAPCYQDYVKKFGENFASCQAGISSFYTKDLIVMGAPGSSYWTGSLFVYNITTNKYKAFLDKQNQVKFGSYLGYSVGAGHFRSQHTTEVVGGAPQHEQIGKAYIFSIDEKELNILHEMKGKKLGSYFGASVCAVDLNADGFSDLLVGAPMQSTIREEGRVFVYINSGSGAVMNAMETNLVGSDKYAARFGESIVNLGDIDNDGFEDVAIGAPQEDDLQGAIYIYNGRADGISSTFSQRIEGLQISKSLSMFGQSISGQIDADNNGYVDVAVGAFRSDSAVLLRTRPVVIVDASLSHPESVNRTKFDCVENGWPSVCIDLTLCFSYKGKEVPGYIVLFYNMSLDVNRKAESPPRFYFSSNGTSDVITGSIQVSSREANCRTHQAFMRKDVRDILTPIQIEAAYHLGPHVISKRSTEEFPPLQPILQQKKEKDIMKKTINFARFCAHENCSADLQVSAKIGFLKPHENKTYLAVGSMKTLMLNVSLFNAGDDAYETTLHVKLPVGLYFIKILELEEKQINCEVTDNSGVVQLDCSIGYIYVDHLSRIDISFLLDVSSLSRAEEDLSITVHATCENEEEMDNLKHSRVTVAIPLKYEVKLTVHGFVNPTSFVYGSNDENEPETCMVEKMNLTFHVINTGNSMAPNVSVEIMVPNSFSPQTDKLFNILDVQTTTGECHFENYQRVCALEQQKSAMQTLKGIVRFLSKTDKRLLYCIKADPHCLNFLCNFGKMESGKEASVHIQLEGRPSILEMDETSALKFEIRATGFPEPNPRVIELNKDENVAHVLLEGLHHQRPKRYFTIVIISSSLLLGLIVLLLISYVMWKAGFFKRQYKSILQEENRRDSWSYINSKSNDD

Take `CCCCCOc1ccc(C[C@H](NC(=O)c2c3ccccc3nc3ccccc23)C(=O)O)cc1`: the inhibition (commonly the percentage by which the read-out fell short of the control) at Integrin alpha-4/beta-1 [1] turned out to be 92%. For the same compound, the pIC50 (usually the negative decadic logarithm of the IC50, by convention in mol/L) at Integrin alpha-4/beta-1 [2] was 6.23.
Turning to `CCCCCOc1ccc(C[C@H](NC(=O)C2(C)CC2(Cl)Cl)C(=O)O)cc1` (stereo not given in full), the pIC50 on Integrin alpha-4/beta-1 [2] is 6.68.
Regarding `CCCCCOc1ccc(C[C@H](NC(=O)c2cccnc2)C(=O)O)cc1`, the inhibition at Integrin alpha-4/beta-1 [1] turned out to be 87%. Further, the pIC50 at Integrin alpha-4/beta-1 [2] was 5.42.
Turning to `CCCCCOc1ccc(C[C@H](NC(=O)Cc2cccc(N)c2)C(=O)O)cc1`, at Integrin alpha-4/beta-1 [2], the pIC50 was 5.35.
Regarding `CCCCCOc1ccc(C[C@H](NC(=O)C2CC(=O)N(C)C2c2cccnc2)C(=O)O)cc1` (stereo in doubt; 22) [listing 1 of 2 here], the pIC50 at Integrin alpha-4/beta-1 [2] is 6.06.
As to `CCCCCCc1ccc(C[C@H](NC(=O)Cc2cccc(NC(=N)N)c2)C(=O)O)cc1`, the pIC50 at Integrin alpha-4/beta-1 [2] was 5.15.
For `CC(C)(C)OC(=O)N1CCC[C@H](CC(=O)N[C@@H](Cc2ccc(C#CCCCC(=O)O)cc2)C(=O)O)C1`, the pIC50 on Integrin alpha-4/beta-1 [2] is 6.19.
For the compound `CO/N=C(\C(=O)N[C@@H](Cc1ccc(C#CCCCC(=O)OC)cc1)C(=O)O)c1csc(N)n1`, on Integrin alpha-4/beta-1 [1], the inhibition was 99%. At Integrin alpha-4/beta-1 [2], the pIC50 was 6.87.
For the compound `O=C(O)CCCC#Cc1ccc(C[C@H](NC(=O)[C@@H]2CCC(=O)N2Cc2ccccc2)C(=O)O)cc1`, on Integrin alpha-4/beta-1 [2], the pIC50 is 7.70.
On to `CCCCCOc1ccc(C[C@H](NC(=O)[C@@H]2CSCN2C(C)=O)C(=O)O)cc1`, for which the pIC50 was 6.95 on Integrin alpha-4/beta-1 [2] and 5.38 on Integrin alpha-4/beta-1 [3].
On to `CCCCCOc1ccc(C[C@H](NC(=O)C2CC(=O)N(C)C2c2cccnc2)C(=O)O)cc1` (stereo in doubt; 3) [listing 1 of 2 here], for which the pIC50 at Integrin alpha-4/beta-1 [2] was 5.77.
On to `COC(=O)CCCC#Cc1ccc(C[C@H](NC(=O)c2ccc(S(N)(=O)=O)cc2)C(=O)O)cc1`, for which, on Integrin alpha-4/beta-1 [1], the inhibition stood at 94%. Also, the pIC50 on Integrin alpha-4/beta-1 [2] is 6.50.
Turning to `CCCCCOc1ccc(C[C@H](NC(=O)/C(=N/OC)c2csc(N)n2)C(=O)O)cc1`, at Integrin alpha-4/beta-1 [2], the negative-log IC50 (pIC50) is 7.22.
For `CCCCCOc1ccc(C[C@H](NC(=O)C2CC(=O)N(C)C2c2cccnc2)C(=O)O)cc1` (stereo in doubt; 22) [listing 2 of 2 here], on Integrin alpha-4/beta-1 [1], the inhibition was determined as 90%.
In the case of `CCCCCOc1ccc(C[C@H](NC(=O)c2c(C)cc(C)cc2C)C(=O)O)cc1`, the pIC50 on Integrin alpha-4/beta-1 [2] is 6.61.
Regarding `CCCCCOc1ccc(C[C@H](NC(=O)[C@@H]2CCC(=O)N2Cc2ccccc2)C(=O)O)cc1`, at Integrin alpha-4/beta-1 [1], the inhibition was determined as 97%. Further, the pIC50 on Integrin alpha-4/beta-1 [2] is 7.34.
Take `CC1(C(=O)N[C@@H](Cc2ccc(C#CCCCC(=O)O)cc2)C(=O)O)CC1(Cl)Cl` (stereo not given in full): on Integrin alpha-4/beta-1 [1], the inhibition amounted to 80%. At Integrin alpha-4/beta-1 [2], the pIC50 was 6.73.
With `CCCCCOc1ccc(C[C@H](NC(=O)C2CC(=O)N(C)C2c2cccnc2)C(=O)O)cc1` (stereo in doubt; 3) [listing 2 of 2 here], the inhibition at Integrin alpha-4/beta-1 [1] stood at 81%.
